Data set [1] addresses T1, α-syn fibrils (Homo sapiens, UniProt P37840).
T1 construct: made in house; host or cells: Escherichia coli BL21(DE3)
The settings on record: cited from earlier work; for Kd: read-out: Kd for α-syn.

The target in a further data set is tau fibrils. To be noted: cited from earlier work.
For a further data set, the target named is Aβ fibrils. To be noted: cited from earlier work; for Kd: read-out: Kd for Aβ fibrils.
Data set [2] has as its target T1, α-syn fibrils. The data set is described as follows: Direct fluorescence titration on α-syn fibrils: Kd and Bmax. It is filed as binding. From the text:
(§1) In view of the interesting properties of compounds 33–39, we decided to switch to azaindole structures and to study the impact of the position of the nitrogen atom in the 6-membered ring on binding to fibrils. At this step we measured, in addition to the Ki values, the direct binding of each compound to fibrils through the fluorescence in the fraction bound to fibrils, which allowed us to determine the affinity values (Kd, Table 1). […] We therefore prepared a fluorinated derivative of compound 43, i.e., 45.
(§2) Fresh solutions of each tested compound (2.5 mM in DMSO) were diluted in PBS pH 7.4 at concentrations ranging from 0.5 nM to 5 µM in the presence or absence of α-syn, Aβ1-42, or Tau fibrils (200 nM, 500 nM, or 200 nM, respectively) in a final volume of 2 mL. After 1 h incubation at room temperature, the binding of each compound to α-syn, Aβ1-42, or Tau fibrils was assessed by fluorescence measurements using the appropriate excitation/emission wavelengths (i.e., those yielding the highest fluorescence ratio between fibril-bound and free compound). For any given concentration of compound added to the fibrils, the concentrations of compound bound to the fibrils and free in solution were determined on the basis of the measured fluorescence. Since at each point of the titration: Fm = FB × B + FF × (T − B) where Fm is the measured fluorescence of the compound in the presence of fibrils at a given compound concentration T, FB is the specific molar fluorescence of the bound compound, FF is the specific molar fluorescence of the free compound, and B is the concentration of compound bound to the fibrils at any point of the titration. FF was determined by measuring the fluorescence of known compound concentrations in the absence of fibrils. FB was determined by measuring the maximum fluorescence of known compound concentrations upon saturation with α-syn, Aβ1-42, or Tau fibrils.
(§3) Therefore, at each point of the titration, the concentration of bound compound B could be determined and was B = (Fm − FF × T)/FB − FF. The B values thus determined versus the respective concentrations of free compound were analyzed by fitting to the Michaelis-Menten equation.

Data set [3] deals with T2, Aβ1-42 fibrils (Homo sapiens, UniProt P05067).
T2 construct: Wild-type α-syn and Aβ1-42 were expressed; made in house; host or cells: Escherichia coli BL21(DE3)
T2 sequence (P05067 672-713): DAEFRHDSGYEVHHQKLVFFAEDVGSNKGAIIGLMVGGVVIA
The data set is described as follows: Direct fluorescence titration on Aβ1-42 fibrils: Kd and Bmax. It is filed as binding. To be noted: for Kd: direct assay on fibrils, mean ± SD of 3 experiments, read-out: Kd Aβ.
Excerpt: as §1, §2, §3

For data set [4], the target named is T3, Tau fibrils (isoform h2N4RTau) (Homo sapiens, UniProt P10636).
T3 construct: made in house; host or cells: Escherichia coli BL21(DE3), pET11d vector
T3 sequence (P10636 1-441 isoform P10636-8): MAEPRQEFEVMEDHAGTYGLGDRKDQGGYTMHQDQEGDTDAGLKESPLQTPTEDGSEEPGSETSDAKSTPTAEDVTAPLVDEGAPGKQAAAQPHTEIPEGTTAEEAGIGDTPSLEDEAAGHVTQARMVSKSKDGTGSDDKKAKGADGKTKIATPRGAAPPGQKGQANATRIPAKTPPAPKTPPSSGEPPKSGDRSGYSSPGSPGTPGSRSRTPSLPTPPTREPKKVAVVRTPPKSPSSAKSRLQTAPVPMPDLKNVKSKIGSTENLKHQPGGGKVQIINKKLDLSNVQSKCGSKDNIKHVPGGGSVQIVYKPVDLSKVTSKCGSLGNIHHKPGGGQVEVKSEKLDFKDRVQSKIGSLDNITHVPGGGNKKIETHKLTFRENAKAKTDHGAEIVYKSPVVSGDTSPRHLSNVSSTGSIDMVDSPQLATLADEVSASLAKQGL
The data set is described as follows: Direct fluorescence titration on Tau fibrils: Kd and Bmax. It is filed as binding.
Excerpt: as §1, §2, §3

Data set [5] is described as follows: Octanol–water partition coefficient at pH 7.4 (LogD). The settings on record: pH 7.4, mean ± SD on three independent experiments. The format is physicochemical.
In data set [6] the test system is Aβ1-42 fibrils. The data set is described as follows: Direct fluorescence titration on Aβ1-42 fibrils: Kd and Bmax. The format is binding. To be noted: from Kd values.
Excerpt: as §1, §2, §3

Data set [7] concerns the target T3, Tau fibrils (isoform h2N4RTau). The data set is described as follows: Inhibition of thioflavin T binding to Tau fibrils (fluorescence competition), Ki determination. To be noted: calculated from IC50, competition with ThT 500 nM, fibrils 200 nM, mean ± SD of 3 experiments. The method, then: (§4) Wild-type α-syn and Aβ1-42 were expressed in the Escherichia coli strain BL21(DE3) (Stratagene, La Jolla, CA, USA) and purified as described. […] For the Aβ1-42 peptide, the concentration was determined by a fluorometric method using the reactive compound fluorescamine (Sigma, San Jose, CA, USA) that reacts with primary amino groups to form a fluorescent product. The human Tau protein (isoform h2N4RTau) was expressed in the pET11d vector in the Escherichia coli strain BL21(DE3) (Stratagene, La Jolla, CA, USA) and purified as described.
(§5) For assembly into fibrils, α-syn was incubated in 50 mM Tris-HCl, pH 7.5, 150 mM KCl at 37 °C under continuous shaking for 4 days. Lyophilized Aβ1-42 was dissolved in 1,1,1,3,3,3-hexafluoro-2-propanol (HFIP) at a concentration of 0.2 mg/mL and incubated for 24 h at 37 °C to achieve complete solubilization. HFIP was evaporated under a nitrogen stream to obtain a dry film. To start assembly into fibrils, the dry peptide was resuspended in PBS pH 7.4, 10% (v/v) DMSO and incubated at 37 °C without shaking for 3 days. The Tau protein was assembled in fibrils in a PBS buffer containing 1 mM of DTT in the presence of 1/12 heparin (v/v) at 37 °C under shaking. […] Protein fibrils were systematically examined by transmission electron microscopy (TEM) in a Jeol 1400 transmission electron microscope following adsorption onto carbon-coated 200 mesh grids and negative staining with 1% uranyl acetate. The images were recorded with a Gatan Orius CCD camera (Gatan, Pleasanton, CA, USA). Finally, the percentage of α-syn or Aβ1-42 aggregated into fibrils was assessed by pelleting fibrils at 40,000× g for 20 min and by determining the concentration of soluble protein/peptide remaining in the supernatant.
(§6) The samples were incubated for 1 h at room temperature to achieve complete equilibration.

For data set [8], the target named is T1, α-syn fibrils. The data set is described as follows: Inhibition of thioflavin T binding to α-syn fibrils (fluorescence competition), Ki determination. The settings on record: calculated from IC50, competition with ThT 500 nM, fibrils 200 nM, mean ± SD of 3 experiments. The procedure: as §4, §5, §6
Data set [9] has as its target T2, Aβ1-42 fibrils. The data set is described as follows: Inhibition of thioflavin T binding to Aβ1-42 fibrils (fluorescence competition), Ki determination. The settings on record: calculated from IC50, competition with ThT 500 nM, fibrils 500 nM, mean ± SD of 3 experiments; read-out: Ki Aβ. The procedure: as §4, §5, §6
The next data set has as its target α-syn in MSA tissues. Set-up: method as in PMID 38352848. The settings on record: cited from earlier work.
Where [10] appears, read: density of binding sites, Scatchard analysis.
Where [11] appears, read: direct assay on fibrils, mean ± SD of 3 experiments.

SMILES strings stand for the structures. Where two headings read alike, the source gives them in different places.

This is an account of results in PMC12655733, “Design, Synthesis and Evaluation of the First 2-Alkynyl(aza)indole ^18F Probe Targeting α-Synuclein Aggregates” (Pharmaceuticals, 2025).

As for `Cc1cc2nc(/C=C/c3ccc(O)c(Br)c3)sc2cc1N(C)CCOCC[18F]` [[^18F]F0502B], the Kd is approximately 10 nM on α-syn fibrils [1], approximately 100 nM at tau fibrils and approximately 100 nM at Aβ fibrils.
As to `O=C1/C(=C\C=C\c2ccc([N+](=O)[O-])cc2)c2ccccc2N1Cc1ccc(OCC[18F])cc1` [[^18F]indolone], the Ki on α-syn fibrils [1] (in vitro) was 10 nM. The “selectivity for α-syn over tau fibrils” value with tau fibrils (α-syn versus tau) is 5 fold. For the same molecule, in the data set with Aβ fibrils (α-syn versus Aβ), the “selectivity towards Aβ fibrils” value was 27 fold.
For the molecule `CN(CCF)c1ccc(C#Cc2cc3cccnc3[nH]2)cc1` [Compound 45], the “α-syn monomers per 1 compound bound” value at α-syn fibrils [2] (corresponding to Bmax) is on record as 7 α-syn monomers. Further, the “Bmax on α-syn fibrils” value on α-syn fibrils [2] (setting [10]) is given as 141.1 ± 45 nmol/µmol α-syn fibrils. In addition, the dissociation constant (Kd) turned out to be 2.4 ± 1 nM on α-syn fibrils [2] (setting [11]), 1.2 ± 1 nM at Aβ1-42 fibrils [3] and 0.97 ± 0.4 nM in data set [4] (setting [11]). The “Aβ monomers per 1 compound bound” value at Aβ1-42 fibrils [3] (corresponding to Bmax) worked out at 600 Aβ monomers. Moreover, at Aβ1-42 fibrils [3] (setting [10]), the “Bmax on Aβ fibrils” value is 1.8 ± 0.6 nmol/µmol Aβ fibrils. Further, in data set [4] (corresponding to Bmax), the “tau monomers per 1 compound bound” value is 20 tau monomers. Moreover, the “Bmax on tau fibrils” value in [4] (setting [10]) is 46.6 ± 5.0 nmol/µmol tau fibrils. Further, the logD in data set [5] worked out at 2.59 ± 0.141.
In the case of `CN(C)c1ccc(C#Cc2cc3cccnc3[nH]2)cc1` [Compound 43], the Kd turned out to be 0.53 ± 0.2 nM at α-syn fibrils [2] (setting [11]), 11.8 ± 3 nM on Aβ1-42 fibrils [3] and 0.44 ± 0.1 nM in data set [4] (setting [11]). In addition, the “Kd α-Syn” value at α-syn fibrils [2] (setting [11]) is listed as “sub-nanomolar”. For the same molecule, the “reduction of affinity for Aβ versus α-syn and tau fibrils” value in the data set on Aβ1-42 fibrils [6] was determined as 20 fold. Further, in [4] (setting [11]), the “Kd Tau” value is “sub-nanomolar”. Moreover, the inhibition constant Ki is 4.61 ± 0.2 nM in data set [7], 4.7 ± 2 nM at α-syn fibrils [8] and 24.4 ± 9 nM at Aβ1-42 fibrils [9].
With `O=C1c2cn(-c3ccc(N4CC[C@@H]([18F])C4)nc3)nc2CN1c1cccnc1` [[^18F] ACI-12589], the Kd on α-syn in MSA tissues is 22 to 30 nM.
Regarding `[18F]c1ccc2nc(/C=C/c3ccc(N4CCOCC4)cc3)sc2c1` [[^18F]MFSB], the values for the Kd on α-syn fibrils [1], on tau fibrils and on Aβ fibrils were approximately 10 nM, approximately 100 nM and approximately 100 nM, respectively.
